Holding throughout (assay type): in vivo
Data set [1] deals with winter wheat (Triticum aestivum L.), cultivar Capo. Put plainly: Selenium biofortification of wheat grains by foliar sodium selenite, with or without adjuvant A1.2 (field experiment). The following applies: 300 l/ha; for Selenium content in the wheat grains (mcg/kg): applied at GS31; for Yield (kg/ha): yield with 86% dry matter. From the text:
Example 7. On the experimental field from Fundulea was done also an experiment in order to establish the effect of adjuvant A1.2 on the biofortification treatment with sodium selenite applied as foliar fertilizers on wheat. Se (IV) from the sodium selenite is a selenium species which are not translocated from the radicular system into the foliar one through xylem (Zhu et al., 2009, Trends Plant Sci. 14:436-442), thus an eventually biofortification of the wheat yield resulted from the treatment with selenite is the result of the selenite absorbed through cuticle and not of that absorbed by radicular system after leakage on soil. The soil on which was done the experiment has the characteristics presented in the above tab. 6, and the total selenium content (HF + HNO3 + HCl) is 0.197 mg/kg.
The experiment was done of experimental plots of 25 m^2, with winter wheat (Triticum aestivum L.), cultivar Capo, cultivated in similar conditions with those already presented in Example 6 regarding the agrotechnics, base fertilization before seeding and crop protection. The experiment was done in random blocks in a Latin square, 4 treatments in 4 repetitions. The 4 treatments were: • V1 - control, treated with water, • V2 - sprayed with a solution of sodium selenite pentahidrate, Na2SeO3.5 H2O, 0.0111%, equiv. 10 g Se/ha for a spraying norm of 300 l/ha; • V3 - sprayed with a solution of sodium selenite pentahidrate, Na2SeO3.5 H2O, 0.0222%, equiv. 20 g Se/ha for a spraying norm of 300 l/ha; • V4 - sprayed with a solution of sodium selenite pentahidrate, Na2SeO3.5 H2O, 0.0111 %, equiv. 10 g Se/ha for a spraying norm of 300 l/ha and 0.5% spraying adjuvant A1.2 Ex.2, equivalent to a dose of 1.5 kg/ha.
Application of the solutions was done with a backpack sprayer SG10 (Stihl AG, Waiblingen, Germany), by spraying from 40 cm, with a spraying pressure set-up to 275 kPa, using a nozzle with flat jet and low drift (TeeJett® flat-fan TT11002 model, Spraying Systems Co., Wheaton, IL, USA). The treatments were applied during the growth stages GS31 (5th April 2012). On the end of the vegetation season each repetition was separately harvested, the realized production being expressed in kg/ha with 86% dry matter. In the wheat grain selenium was determined, by atomic absorption spectrophotometry with hydride generation (Tinggi et al., 1992, J. Food Comp. Anal. 5, 269-280). The date were analyzed by application of the linear general model, to determine the average values and the significance differences at a probability level of 5% (Statistica 10, StatSoft, Tulsa, OK, US). Tab. 8. Influence of the adjuvant A1.2 done according to the invention on the biofortification treatment of wheat grains (cv. Capo) with selenium.

Data set [2] deals with leafminers flies, Liriomyza trifolii (Burgess). Put plainly: Field test of spinosad with or without adjuvant A3 against leafminer larvae on muskmelon. The following applies: per sampled leaf, 3 days after treatment, acetamipirid 0.025%, spinosad 0.05%, adjuvant A3 0.4%. On the procedure:
Example 10. The effect of adjuvant A3, obtained according to Example 5, was tested to determine whether its addition improve the activity of spinosad against leafminers flies, Liriomyza trifolii (Burgess). Spinosad is a metabolite produced by biosynthetic process by the actinomycetes Saccharopolyspora spinosa, and provides excellent crop protection with a relatively low toxicity to non-target organisms, including many beneficial insects. For that reason spinosad is accepted on organic farming systems. […] Addition of the spraying adjuvant increase the efficacy of spinosad based insecticide in controlling leafminers larvae (Larson, 1997, Arthrop. Manag. Test. 22:415-416).
The experiment was done on the Fundulea experimental field, which characteristics were already presented in Example 6. The muskmelon (Cucumis melo L., cv. Charentais) experimental plots were established on 19th of April, 2012, using 25 days old transplants, on a density equivalent to 12.000 transplants per ha. The experimental filed where experiment was plotted was previously cultivated with corn and was fertilized with 200 kg/ha equivalent complex fertilizer NPK 15:15:15 (Azomure ? ), on beginning of March. Herbicidation was done by application on the whole surface of a dose of 4 l/ha Stomp 330 EC, sprayed in a mixture with 450 l water per ha, 10 days before transplantation, and incorporated in soil with a by harrowing with a disc harrow.
Plots of 20 m^2 were made with edges of two untreated rows, in random blocks, with 4 repetitions on each treatment. Application of treatments were done with a backpack sprayer SG10 (Stihl AG, Waiblingen, Germany), by spraying from 40 cm, with a spraying pressure set-up to 275 kPa, using a nozzle with flat jet and low drift (TeeJett® flat-fan TT11002 model, Spraying Systems Co., Wheaton, IL, USA). Were applied […], one in the phenophase of 3...4 leaves and in the phenophase 6...8 leaves, as a second treatment. In phenophase 3...4 leaves, one day after the treatment with insecticide, was applied also a treatment with Previcur 607 SL (propamocarb 607 g/l) for controlling the downy mildew (Pseudoperonospora cubensis), on the whole area of the experiment. The experimental treatments were: • V1 - control, untreated for Liriomyza trifolii; • V2 - acetamipirid 0.025% (Mospilan 20 SG, 200 g/kg acetamipirid, Nippon Soda Company, Tokio, Japonia), equivalent 0.1 kg/ha in a spraying norm of 400 l/ha, considered as standard for treatment of leafminers flies larvae because is a systemic insecticide; • V3 - spinosad 0.05% (Laser 240 SC, 240 g/l spinosad, Dow AgroSciences, Indianapolis, USA), equivalent 0.2 kg/ha at a spraying norm of 400 l/ha; • V4 - spinosad 0.05% (Laser 240 SC, 240 g/l spinosad, Dow AgroSciences, Indianapolis, USA), equivalent 0.2 kg/ha at a spraying norm of 400 l/ha + adjuvant A3, according to Example 5, 0.4%, equiv. to 1.6 kg at a spraying norm of 400 l/ha.
The impact of each treatment on leafminer larvae mortality was estimated by counting the number of live and dead / paralyzed larvae, and also of the empty and total mines per each sampled leaf. A total of 10 leaves per experimental plot were collected at 3 days after treatment and examined in the laboratory for presence of mines in leaves and larvae status in the mines. The data were processed by analysis of variance (Statistica 10, StatSoft). Tab. 11.The influence of spray adjuvant A3 on the efficacy of spinosad in controlling the leafminers larvae on muskmelon.

The subject of data set [3] is Tomato plants (Lycopersicum esculentum cv. Cristal F1). Put plainly: Protection of tomato plants against water stress by foliar glycine-betaine, with or without adjuvant A2 (greenhouse). On the procedure:
Example 9. It was tested the efficacy of adjuvant A2, obtained according to Ex.4 on the performances of glycine-betaine, compound with an osmoprotectant action, regarding the protection of tomato plants against water stress. Glycine - betaine presents a molecule with quaternary nitrogen, strongly polar, with a reduced penetrability on the hydrophobic plant cuticle.
Tomato plants (Lycopersicum esculentum cv. Cristal F1), transplants of 60 days, were re-potted in vegetation pots of 25 cm dia. and 50 cm height, on which was introduced a synthetic grown substrate enriched with nutrients for the first week of plant growth (Canna Terra Professional Plus, Canna International BV). The vegetation pots were maintained in greenhouse conditions, at 22±2°C during the day and 17±2°C during the night, with a photoperiod of 12 hours, supplemented with light with an intensity of 160 µE/m^2/s, from a metal halide lamp, when the light intensity was below 500 µE/m^2/s. […] The grown substrate contained initial nutrient reserves, thus the plants were fertilized only one time, at 28 days after transplantation, by the application of 100 ml of nutritive solution 1 g/l of fertilizer 20 - 8 - 20 (N-P2O5-K2O, Eurofertil, TimacAgro Romania). The experiment was organized in a random bloc with 4 repetitions for each treatment, each repetition including 5 plants. It was used purified glycine-betaine (99%, Sigma Aldrich, St. Louis, Mo, US). The experimental treatments included also controls, sprayed only with water, water stress control and unstressed control. These experimental treatments were: • V1 - control unstressed, sprayed with water; 2 treatments x 2 ml per plant, equivalent 100 l/ha; • V2 - control water stressed, sprayed with water; 2 treatments x 2 ml per plant, equivalent 100 l/ha; • V3 - water stressed, sprayed with glycine-betaine; 2 treatments x 2 ml 5 mM per plant, equivalent 58,5 g in 100l/ha; […]; […]; • V5 - water stressed, sprayed with glycine -betaine and adjuvant, 2 treatments x 2 ml solution 5 mM betaine + 1% adjuvant A2 per plant, equivalent 58,5 g betaine and 1 kg adjuvant A2 in 100l/ha.
Treatments were applied in the 2nd and 29th day after transplantation, by spraying each plant with the help of a glass atomizer with metal top and plastisol bulb (model 15-RD, DeVilbiss Healthcare, Somerset, PA, USA). The unstressed control was irrigated once every five day at 100% field capacity, and the water stressed plants were irrigated each two weeks at 100% field capacity. […] The data were processed by analysis of variance (Statistica 10, StatSoft).

[4] abbreviates: V3 water stressed, 2x 5 mM equiv. 58,5 g in 100 l/ha.
[5] abbreviates: V3 water stressed, 2x 5 mM equiv. 58,5 g in 100 l/ha, 8 weeks after transplantation.

In the case of `O=[Se](O)O` [Na2SeO3.5 H2O, sodium selenite pentahidrate], the “Selenium content in the wheat grains (mcg/kg)” value is on record as 105b mcg/kg in data set [1] (equiv. 10 g Se/ha) and 142a mcg/kg in data set [1] (equiv. 20 g Se/ha). Moreover, the results for the “Yield (kg/ha)” value in data set [1] (equiv. 10 g Se/ha) and in data set [1] (equiv. 20 g Se/ha) were 4958a kg/ha and 4549b kg/ha, respectively.

spinosad: in data set [2] (First treatment), the Dead larvae is reported as 1.8b, the Empty mines was 3.3b, the Mines total is on record as 8.2b and the “Mines with live larvae” value is 1.2b. For the same molecule, in data set [2] (Second treatment), the Dead larvae is listed as 3.1a, the Empty mines was 2.7a, the Mines total is on record as 6.8b and the “Mines with live larvae” value worked out at 0.3a.

`C[N+](C)(C)CC(=O)O` [glycine-betaine]: the “Leaves surfaces (mm^2)” value in data set [3] (setting [4]) is reported as 587.58±4.92ab mm^2; in data set [3] (V4 water stressed, 2x 5 mM equiv. 117 g in 100 l/ha), 663.16±5.84a mm^2. Besides, the “Number of Leaves” value in data set [3] (setting [4]) was found to be 28.00±2.1b. In addition, the “Plant height (cm)” value in data set [3] (setting [5]) was found to be 47.30±3.42c cm. Also, the “Root length (cm)” value in data set [3] (setting [5]) is 45.50±2.39b cm; in data set [3] (V4 water stressed, 2x 5 mM equiv. 117 g in 100 l/ha, 8 weeks after transplantation), 54.80±1.88b cm. Moreover, the “Average yield** (g ripened fruits / plant)” value in data set [3] (V3 water stressed, 2x 5 mM equiv. 58,5 g in 100 l/ha, production for 30 days cycle of flowering - fructification) is 223±28.2b g ripened fruits / plant.

Take `C/C(=N\C#N)N(C)Cc1ccc(Cl)nc1` [Acetamipirid, acetamipirid]: in data set [2] (First treatment), the Dead larvae stood at 0.1c, the Empty mines is 0c, the Mines total is on record as 0.4a and the “Mines with live larvae” value is given as 0.1c. Also, in data set [2] (Second treatment), the Dead larvae is reported as 0.3c, the Empty mines worked out at 0b, the Mines total was 0.2a and the “Mines with live larvae” value worked out at 0b.

Values taken from EP2777394A1, “Agricultural adjuvant composition and process for its obtainment” (SC Teso Spec SRL, priority 2012, dated 2014).
